Where “and” joins values, the source holds several entries; their conditions need not be identical. Equal values may be shown once.
Test system: C57BL/6 mice, Adenocarcinoma 755 sc, tumor weight T/C
Assay: NCI In Vivo Anticancer Drug Screen. Data for tumor model Adenocarcinoma 755 (subcutaneous) in C57BL/6 mice
Conditions: endpoint: mean tumor weight, higher = larger tumour
Method: The antitumor activity of compounds was measured in mice bearing transplantable tumors. Survival or tumor size were measured and the results are expressed as the measurement made in the treated group (T) divided by the measurement made in the vehicle treated control group (C). The tumor model used in this assay is Adenocarcinoma 755 (subcutaneous) in C57BL/6 mice

[1] = dose: 2.5 mg/kg/injection, schedule: Q01DX011 (ip), vehicle: saline
[2] = dose: 5.0 mg/kg/injection, schedule: Q01DX011 (ip), vehicle: saline
[3] = dose: 50.0 mg/kg/injection, schedule: Q01DX011 (ip), vehicle: saline

## C[N+](C)(C)c1ncnc2nc[nH]c12
dose: 1.25 mg/kg/injection, schedule: Q#A X022 (ip), vehicle: saline
  T/C: 95 % of control
[1]
  T/C: 109 % of control
dose: 2.5 mg/kg/injection, schedule: Q01DX011 (sc), vehicle: saline
  T/C: 56 % of control
dose: 2.5 mg/kg/injection, schedule: Q#A X022 (ip), vehicle: saline
  T/C: 93 % of control
[2]
  T/C: 52 % of control
dose: 5.0 mg/kg/injection, schedule: Q01DX011 (sc), vehicle: saline
  T/C: 34 % of control
dose: 5.0 mg/kg/injection, schedule: Q#A X022 (ip), vehicle: saline
  T/C: 40 % of control
dose: 7.5 mg/kg/injection, schedule: Q03DX004 (ip), vehicle: saline
  T/C: 77 % of control
dose: 10.0 mg/kg/injection, schedule: Q01DX006 (iv), vehicle: saline
  T/C: 50 % of control
dose: 10.0 mg/kg/injection, schedule: Q01DX011 (ip), vehicle: saline
  T/C: 12 % of control and 18 % of control
dose: 10.0 mg/kg/injection, schedule: Q01DX011 (oral), vehicle: saline
  T/C: 58 % of control
dose: 10.0 mg/kg/injection, schedule: Q01DX011 (sc), vehicle: saline
  T/C: 34 % of control
dose: 10.0 mg/kg/injection, schedule: Q02DX006 (im), vehicle: saline
  T/C: 54 % of control
dose: 10.0 mg/kg/injection, schedule: Q#A X022 (ip), vehicle: saline
  T/C: 13 % of control and 18 % of control
dose: 15.0 mg/kg/injection, schedule: Q03DX004 (ip), vehicle: saline
  T/C: 76 % of control
dose: 20.0 mg/kg/injection, schedule: Q01DX011 (ip), vehicle: saline
  T/C: 6 % of control and 11 % of control and 18 % of control
dose: 20.0 mg/kg/injection, schedule: Q01DX011 (oral), vehicle: saline
  T/C: 43 % of control
dose: 20.0 mg/kg/injection, schedule: Q01DX011 (sc), vehicle: saline
  T/C: 8 % of control and 16 % of control
dose: 20.0 mg/kg/injection, schedule: Q02DX006 (im), vehicle: saline
  T/C: 50 % of control
dose: 20.0 mg/kg/injection, schedule: Q#A X022 (ip), vehicle: saline
  T/C: 8 % of control
dose: 30.0 mg/kg/injection, schedule: Q03DX004 (ip), vehicle: saline
  T/C: 32 % of control
dose: 40.0 mg/kg/injection, schedule: Q01DX006 (iv), vehicle: saline
  T/C: 42 % of control
dose: 40.0 mg/kg/injection, schedule: Q01DX011 (ip), vehicle: saline
  T/C: 6 % of control and 9 % of control
dose: 40.0 mg/kg/injection, schedule: Q01DX011 (oral), vehicle: saline
  T/C: 12 % of control and 18 % of control
dose: 40.0 mg/kg/injection, schedule: Q01DX011 (sc), vehicle: saline
  T/C: 7 % of control
dose: 40.0 mg/kg/injection, schedule: Q02DX006 (im), vehicle: saline
  T/C: 39 % of control
dose: 60.0 mg/kg/injection, schedule: Q03DX004 (ip), vehicle: saline
  T/C: 16 % of control and 18 % of control
dose: 75.0 mg/kg/injection, schedule: Q01DX001 (ip), vehicle: saline
  T/C: 76 % of control and 85 % of control
dose: 80.0 mg/kg/injection, schedule: Q01DX006 (iv), vehicle: saline
  T/C: 15 % of control
dose: 80.0 mg/kg/injection, schedule: Q01DX011 (ip), vehicle: saline
  T/C: 5 % of control
dose: 80.0 mg/kg/injection, schedule: Q01DX011 (oral), vehicle: saline
  T/C: 5 % of control and 10 % of control and 17 % of control
dose: 80.0 mg/kg/injection, schedule: Q01DX011 (sc), vehicle: saline
  T/C: 5 % of control
dose: 80.0 mg/kg/injection, schedule: Q02DX006 (im), vehicle: saline
  T/C: 20 % of control
dose: 120.0 mg/kg/injection, schedule: Q03DX004 (ip), vehicle: saline
  T/C: 10 % of control
dose: 150.0 mg/kg/injection, schedule: Q01DX001 (ip), vehicle: saline
  T/C: 47 % of control and 48 % of control
dose: 160.0 mg/kg/injection, schedule: Q01DX011 (oral), vehicle: saline
  T/C: 8 % of control
dose: 160.0 mg/kg/injection, schedule: Q01DX011 (sc), vehicle: saline
  T/C: 4 % of control
dose: 300.0 mg/kg/injection, schedule: Q01DX001 (ip), vehicle: saline
  T/C: 33 % of control and 40 % of control
dose: 320.0 mg/kg/injection, schedule: Q01DX011 (oral), vehicle: saline
  T/C: 5 % of control

## CCCCCCCCCCCNc1ncnc2[nH]ncc12
[3]
  T/C: 46 % of control
dose: 100.0 mg/kg/injection, schedule: Q01DX011 (ip), vehicle: saline
  T/C: 41 % of control

## S=c1nc[nH]c2nc[nH]c12
dose: 1.5 mg/kg/injection, schedule: Q01DX011 (ip), vehicle: carboxymethylcellulose (CMC)
  T/C: 26 % of control
dose: 2.5 mg/kg/injection, schedule: Q01DX011 (ip), vehicle: carboxymethylcellulose (CMC)
  T/C: 7 % of control
[1]
  T/C: 4 % of control
[2]
  T/C: 8 % of control and 13 % of control
dose: 5.0 mg/kg/injection, schedule: Q01DX011 (oral), vehicle: carboxymethylcellulose (CMC)
  T/C: 1 % of control
dose: 6.0 mg/kg/injection, schedule: Q01DX011 (ip), vehicle: carboxymethylcellulose (CMC)
  T/C: 4 % of control
dose: 10.0 mg/kg/injection, schedule: Q02DX006 (ip), vehicle: other
  T/C: 2 % of control
dose: 15.0 mg/kg/injection, schedule: Q01DX011 (ip), vehicle: saline
  T/C: 6 % of control
dose: 20.0 mg/kg/injection, schedule: Q01DX011 (ip), vehicle: carboxymethylcellulose (CMC)
  T/C: 2 % of control
dose: 20.0 mg/kg/injection, schedule: Q01DX011 (oral), vehicle: alkali diluted with saline
  T/C: 2 % of control
dose: 20.0 mg/kg/injection, schedule: Q02DX006 (ip), vehicle: other
  T/C: 2 % of control
dose: 30.0 mg/kg/injection, schedule: Q02DX006 (ip), vehicle: other
  T/C: 3 % of control
dose: 40.0 mg/kg/injection, schedule: Q01DX011 (oral), vehicle: alkali diluted with saline
  T/C: 2 % of control
dose: 80.0 mg/kg/injection, schedule: Q01DX011 (oral), vehicle: alkali diluted with saline
  T/C: 1 % of control
dose: 320.0 mg/kg/injection, schedule: Q01DX001 (oral), vehicle: alkali diluted with saline
  T/C: 11 % of control
dose: 320.0 mg/kg/injection, schedule: Q03DX004 (oral), vehicle: alkali diluted with saline
  T/C: 1 % of control
dose: 320.0 mg/kg/injection, schedule: Q07DX002 (oral), vehicle: alkali diluted with saline
  T/C: 5 % of control
dose: 480.0 mg/kg/injection, schedule: Q01DX001 (oral), vehicle: alkali diluted with saline
  T/C: 8 % of control
dose: 480.0 mg/kg/injection, schedule: Q07DX002 (oral), vehicle: alkali diluted with saline
  T/C: 4 % of control
dose: 640.0 mg/kg/injection, schedule: Q01DX001 (oral), vehicle: alkali diluted with saline
  T/C: 9 % of control
dose: 640.0 mg/kg/injection, schedule: Q07DX002 (oral), vehicle: alkali diluted with saline
  T/C: 2 % of control
dose: 960.0 mg/kg/injection, schedule: Q01DX001 (oral), vehicle: alkali diluted with saline
  T/C: 11 % of control

## O=C(O)c1[nH]c(=O)[nH]c(=O)c1Br
[3]
  T/C: 54 % of control

## NC(=S)N/N=C/c1cccc([N+](=O)[O-])c1
dose: 75.0 mg/kg/injection, schedule: Q02DX006 (ip), vehicle: saline
  T/C: 36 % of control
dose: 100.0 mg/kg/injection, schedule: Q02DX006 (ip), vehicle: saline
  T/C: 47 % of control

## NC(=S)N/N=C/c1ccc(N)cc1
dose: 35.0 mg/kg/injection, schedule: Q02DX006 (ip), vehicle: other
  T/C: 86 % of control
dose: 40.0 mg/kg/injection, schedule: Q02DX006 (ip), vehicle: other
  T/C: 85 % of control
dose: 50.0 mg/kg/injection, schedule: Q02DX006 (ip), vehicle: other
  T/C: 87 % of control
dose: 60.0 mg/kg/injection, schedule: Q02DX006 (ip), vehicle: other
  T/C: 70 % of control
dose: 70.0 mg/kg/injection, schedule: Q02DX006 (ip), vehicle: other
  T/C: 77 % of control

## CN(Cc1cnc2nc(N)nc(N)c2n1)c1ccc(C(=O)N[C@@H](CCC(=O)O)C(=O)O)cc1
dose: 0.75 mg/kg/injection, schedule: Q01DX011 (ip), vehicle: saline
  T/C: 74 % of control
dose: 1.0 mg/kg/injection, schedule: Q01DX011 (ip), vehicle: saline
  T/C: 105 % of control
dose: 1.5 mg/kg/injection, schedule: Q01DX011 (ip), vehicle: saline
  T/C: 45 % of control
dose: 2.0 mg/kg/injection, schedule: Q01DX011 (ip), vehicle: saline
  T/C: 87 % of control

## Cn1cnc2ncnc(Cl)c21
dose: 75.0 mg/kg/injection, schedule: Q01DX011 (ip), vehicle: carboxymethylcellulose (CMC)
  T/C: 183 % of control

## CCCCNc1nc(N(C)C)nc2nc[nH]c12
dose: 37.0 mg/kg/injection, schedule: Q01DX011 (ip), vehicle: saline
  T/C: 80 % of control
dose: 75.0 mg/kg/injection, schedule: Q01DX011 (ip), vehicle: saline
  T/C: 29 % of control
dose: 90.0 mg/kg/injection, schedule: Q01DX011 (ip), vehicle: saline
  T/C: 56 % of control
dose: 125.0 mg/kg/injection, schedule: Q01DX011 (ip), vehicle: saline
  T/C: 47 % of control

## Nc1[nH]c(=S)nc2nc[nH]c12
dose: 5.0 mg/kg/injection, schedule: Q02DX006 (ip), vehicle: saline
  T/C: 46 % of control
dose: 6.0 mg/kg/injection, schedule: Q02DX006 (ip), vehicle: saline
  T/C: 33 % of control
dose: 8.0 mg/kg/injection, schedule: Q02DX006 (ip), vehicle: saline
  T/C: 25 % of control

## Clc1ncnc2nc[nH]c12
dose: 37.5 mg/kg/injection, schedule: Q01DX011 (ip), vehicle: saline
  T/C: 1 % of control

— PubChem BioAssay AID218 (DTP/NCI, 2004)
